Reference: patent US20250092056A1, “URACIL DERIVATIVES HAVING VIRUS REPLICATION INHIBITORY ACTIVITY AND PHARMACEUTICAL COMPOSITION COMPRISING THE SAME” (Shionogi & Co., Ltd., priority 2022, published 2025)

Tests used:
SARS-CoV-2 = assay: Cytopathic effect (CPE) suppression effect confirmation test using HEK293T/ACE2-TMPRSS2 cells; format: cell-based; conditions: Severe acute respiratory syndrome coronavirus 2, HEK-293T; 50% SARS-CoV-2 infected cell death inhibitory concentration; HEK293T/ACE2-TMPRSS2 cells; read-out: EC50
[1] = molecular target: Recombinant SARS-CoV-2 3CL Protease (Severe acute respiratory syndrome coronavirus 2 (2019-nCoV) (SARS-CoV-2), UniProt P0DTD1); assay: biochemical; format: biochemical; conditions: 50% SARS-CoV-2 3CL protease inhibitory concentration; read-out: IC50

| Structure (SMILES) | EC50 (SARS-CoV-2) [µM] | IC50 [1] [µM] |
| --- | --- | --- |
| CC1(O)CN(c2c(-c3ccc(F)c(Cl)c3)c(=O)n(-c3cncc(Cl)c3)c(=O)n2CC#N)C1 [Compound I-296] | < 0.1 | < 0.01 |
| Cc1cncc(-n2c(=O)c(-c3ccc(F)c(Cl)c3)c(C3=CC4(CCOCC4)C3)n(CC#N)c2=O)c1 [Compound I-297] | < 0.1 | < 0.01 |
| N#CCn1c(N2CC(OC(F)F)C2)c(-c2ccc(F)c(Cl)c2)c(=O)n(-c2cncc(Cl)c2)c1=O [Compound I-298] | < 0.1 | < 0.01 |
| Cc1c(-c2ccc(F)c(Cl)c2)c(=O)n(-c2cncc(Cl)c2)c(=O)n1CC#N [Compound I-299] | < 0.1 | < 0.01 |
| N#CCn1c(N2CC(F)(C3CC3)C2)c(-c2ccc(F)c(Cl)c2)c(=O)n(-c2cncc(F)c2)c1=O [Compound I-300] | < 0.1 | < 0.01 |
| CC(C)=Cc1c(-c2ccc(F)c(Cl)c2)c(=O)n(-c2cncc(Cl)c2)c(=O)n1CC#N [Compound I-301] | < 0.1 | < 0.01 |
| Cn1ccc(-c2c(-c3ccc(F)c(Cl)c3)c(=O)n(-c3cncc(Cl)c3)c(=O)n2CC#N)n1 [Compound I-302] | < 0.1 | < 0.01 |
| Cn1ccc(-c2c(-c3ccc(F)c(Cl)c3)c(=O)n(-c3cncc(Cl)c3)c(=O)n2CC#N)cc1=O [Compound I-303] | < 0.1 | < 0.01 |
| N#CCn1c(N2CC3(C2)CC(F)(F)C3)c(-c2ccc(F)c(Cl)c2)c(=O)n(-c2onc3cc(F)ccc23)c1=O [Compound I-304] | < 0.1 | < 0.01 |
| N#CCn1c(N2CCC(F)(C#N)CC2)c(-c2ccc(F)c(Cl)c2)c(=O)n(-c2cncc(Cl)c2)c1=O [Compound I-305] | < 0.1 | < 0.01 |
| CC(C)(O)CCc1c(-c2ccc(F)c(Cl)c2)c(=O)n(-c2cncc(Cl)c2)c(=O)n1CC#N [Compound I-306] | < 0.1 | < 0.01 |
| CC(C)(F)Cc1c(-c2ccc(F)c(Cl)c2)c(=O)n(-c2cncc(Cl)c2)c(=O)n1CC#N [Compound I-307] | < 0.1 | < 0.01 |
| CC(C)(O)Cc1c(-c2ccc(F)c(Cl)c2)c(=O)n(-c2cncc(Cl)c2)c(=O)n1CC#N [Compound I-308] | < 0.1 | < 0.01 |
| N#CCn1c(N2CC(F)C2)c(-c2ccc(F)c(Cl)c2)c(=O)n(-c2cncc(Cl)c2)c1=O [Compound I-309] | < 0.1 | < 0.01 |
| N#CCn1c(N2CC(C(F)(F)F)C2)c(-c2ccc(F)c(Cl)c2)c(=O)n(-c2cncc(C#N)c2)c1=O [Compound I-310] | < 0.1 | < 0.01 |
| N#CCn1c(N2CC(OC(F)(F)F)C2)c(-c2ccc(F)c(Cl)c2)c(=O)n(-c2cncc(C#N)c2)c1=O [Compound I-311] | < 0.1 | < 0.01 |
| N#CCn1c(N2CC(C(F)F)C2)c(-c2ccc(F)c(Cl)c2)c(=O)n(-c2cncc(C#N)c2)c1=O [Compound I-312] | < 0.1 | < 0.01 |
| CC(C)(O)[C@@H]1CCN(c2c(-c3ccc(F)c(Cl)c3)c(=O)n(-c3cncc(C#N)c3)c(=O)n2CC#N)C1 [Compound I-313] | < 0.1 | < 0.01 |
| Cc1cc(-c2c(-c3ccc(F)c(Cl)c3)c(=O)n(-c3cncc(Cl)c3)c(=O)n2CC#N)on1 [Compound I-314] | < 0.1 | < 0.01 |
| N#CCn1c(N2CC3(C2)CC(F)(F)C3)c(-c2ccc(F)c(F)c2)c(=O)n(-c2cncc(Cl)c2)c1=O [Compound I-315] | < 0.1 | < 0.01 |
| N#CCn1c(N2CC(C(F)(F)F)C2)c(-c2ccc(F)c(F)c2)c(=O)n(-c2cncc(Cl)c2)c1=O [Compound I-316] | < 0.1 | < 0.01 |
